Values joined by “and” are separate entries in the source; they are usually repeats but may differ in a detail not shown here. Equal values may be shown once. Inconclusive results and toxic doses are left out. No stated cut-off is given here; in the data, active means T/C of 150% or more; inactive means T/C below 125%.
Test system: L1210 leukemia ip in BDF1 mice, survival T/C
Assay: NCI In Vivo Anticancer Drug Screen. Data for tumor model L1210 Leukemia (intraperitoneal) in B6D2F1 (BDF1) mice
Conditions: endpoint: mean survival time, higher = longer survival
Outline: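 Ratio derived from survival: compound-dosed mice over vehicle-dosed mice, all bearing a transplantable tumor.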

[1] = dose: 200.0 mg/kg/injection, schedule: Q04DX002 (ip), vehicle: Klucel (hydroxypropylcellulose) (HPC)
[2] = dose: 400.0 mg/kg/injection, schedule: Q04DX002 (ip), vehicle: Klucel (hydroxypropylcellulose) (HPC)
[3] = dose: 100.0 mg/kg/injection, schedule: Q01DX009 (ip), vehicle: Klucel (hydroxypropylcellulose) (HPC)
[4] = dose: 50.0 mg/kg/injection, schedule: Q01DX001 (ip), vehicle: carboxymethylcellulose (CMC)
[5] = dose: 100.0 mg/kg/injection, schedule: Q01DX001 (ip), vehicle: carboxymethylcellulose (CMC)
[6] = dose: 200.0 mg/kg/injection, schedule: Q01DX001 (ip), vehicle: carboxymethylcellulose (CMC)
[7] = dose: 400.0 mg/kg/injection, schedule: Q01DX001 (ip), vehicle: carboxymethylcellulose (CMC)
[8] = dose: 100.0 mg/kg/injection, schedule: Q01DX001 (ip), vehicle: saline
[9] = dose: 200.0 mg/kg/injection, schedule: Q01DX001 (ip), vehicle: saline
[10] = dose: 400.0 mg/kg/injection, schedule: Q01DX001 (ip), vehicle: saline
[11] = dose: 100.0 mg/kg/injection, schedule: Q04DX002 (ip), vehicle: Klucel (hydroxypropylcellulose) (HPC)
[12] = dose: 100.0 mg/kg/injection, schedule: Q01DX001 (ip), vehicle: other
[13] = dose: 400.0 mg/kg/injection, schedule: Q01DX001 (ip), vehicle: other

Measured: T/C

COc1ccc2c(CSc3ncnc4nc[nH]c34)cc(=O)oc2c1
inactive: [1] 94 % of control | [2] 94 % of control

O=C(NC1c2cc(Cl)ccc2-c2c(Cl)cc(Cl)cc21)C12CC3CC(CC(C3)C1)C2 (stereo unspecified)
inactive: [3] 96 % of control | dose: 100.0 mg/kg/injection, schedule: Q04DX003 (ip), vehicle: Klucel (hydroxypropylcellulose) (HPC) 100 % of control | dose: 200.0 mg/kg/injection, schedule: Q01DX009 (ip), vehicle: Klucel (hydroxypropylcellulose) (HPC) 97 % of control | dose: 200.0 mg/kg/injection, schedule: Q04DX003 (ip), vehicle: Klucel (hydroxypropylcellulose) (HPC) 93 % of control | dose: 400.0 mg/kg/injection, schedule: Q01DX009 (ip), vehicle: Klucel (hydroxypropylcellulose) (HPC) 104 % of control | dose: 400.0 mg/kg/injection, schedule: Q04DX003 (ip), vehicle: Klucel (hydroxypropylcellulose) (HPC) 96 % of control

CC1(C(N)=O)CCC(C(=O)O)C1(C)C (stereo unspecified)
inactive: [4] 103 % of control | [5] 109 % of control | [6] 103 % of control | [7] 103 % of control

O=C(CCCc1ccc(N(CCCl)CCCl)cc1)NC1CCCC1
inactive: dose: 4.0 mg/kg/injection, schedule: Q12HX018 (ip), vehicle: other 103 % of control | dose: 6.0 mg/kg/injection, schedule: Q12HX018 (ip), vehicle: other 98 % of control | dose: 8.0 mg/kg/injection, schedule: Q12HX018 (ip), vehicle: other 103 % of control

CCOC(=O)c1n[nH]c(=S)[nH]c1=S
inactive: dose: 100.0 mg/kg/injection, schedule: Q01DX001 (ip), vehicle: acetone 102 % of control | dose: 200.0 mg/kg/injection, schedule: Q01DX001 (ip), vehicle: acetone 101 % of control | dose: 400.0 mg/kg/injection, schedule: Q01DX001 (ip), vehicle: acetone 107 % of control

O=c1[nH]cnc2c1nc([Se])n2C1OC(CO)C(O)C1O (stereo unspecified)
inactive: dose: 100.0 mg/kg/injection, schedule: Q01DX005 (ip), vehicle: saline 102 % of control | dose: 200.0 mg/kg/injection, schedule: Q01DX005 (ip), vehicle: saline 107 % of control

CN(CCC(=O)O)S(=O)(=O)c1ccccc1
inactive: [8] 103 % of control | [9] 97 % of control | [10] 89 % of control

CC(=O)C(C)(c1ccccc1)N(Cc1ccccc1)C(=O)c1ccccc1 (stereo unspecified)
inactive: dose: 100.0 mg/kg/injection, schedule: Q04DX003 (ip), vehicle: other 93 % of control | dose: 200.0 mg/kg/injection, schedule: Q04DX003 (ip), vehicle: other 108 % of control | dose: 400.0 mg/kg/injection, schedule: Q04DX003 (ip), vehicle: other 92 % of control

NNC(=O)c1ccc(Cl)cc1Nc1ccc(Cl)cc1
inactive: dose: 25.0 mg/kg/injection, schedule: Q01DX009 (ip), vehicle: Klucel (hydroxypropylcellulose) (HPC) 93 % of control | dose: 50.0 mg/kg/injection, schedule: Q01DX009 (ip), vehicle: Klucel (hydroxypropylcellulose) (HPC) 95 % of control | dose: 100.0 mg/kg/injection, schedule: Q01DX001 (ip), vehicle: Klucel (hydroxypropylcellulose) (HPC) 97 % of control | [3] 91 % of control

O=C(O)Cc1ccccc1Cl
inactive: dose: 100.0 mg/kg/injection, schedule: Q01DX009 (ip), vehicle: gum acacia 100 % of control | dose: 200.0 mg/kg/injection, schedule: Q01DX009 (ip), vehicle: gum acacia 96 % of control

OC(COc1ccccc1)CN1CCN(c2ccccc2)CC1 (stereo unspecified)
inactive: [11] 98 % of control | [1] 102 % of control | [2] 95 % of control and 102 % of control

C(=N\N1CCN(/N=C/c2ccc(-c3ccccc3)cc2)CC1)/c1ccc(-c2ccccc2)cc1
inactive: [8] 94 % of control | [9] 97 % of control | [10] 94 % of control

CC(=O)C(Sc1ccccc1[N+](=O)[O-])C(C)=O.[Cr]
inactive: dose: 50.0 mg/kg/injection, schedule: Q01DX001 (ip), vehicle: other 94 % of control | [12] 88 % of control | [13] 88 % of control

Cc1c(C)c(Br)c(C)c(-c2c(O)c(Br)c(-c3c(C)c(C)c(C)c(Br)c3C)c(O)c2Br)c1C
inactive: dose: 100.0 mg/kg/injection, schedule: Q04DX003 (ip), vehicle: saline with Tween-80 97 % of control | dose: 200.0 mg/kg/injection, schedule: Q04DX003 (ip), vehicle: saline with Tween-80 90 % of control

N#CCC(=O)N1CCCCC1
inactive: [4] 93 % of control | [5] 93 % of control | [6] 114 % of control | [7] 95 % of control

Cc1ccc(C(O)CCN2CCOCC2)c(C)c1 (stereo unspecified)
inactive: [8] 102 % of control | [9] 104 % of control

CC/C(=N/N=C(N)N)c1ccc(NC(=O)Nc2ccc(/C(CC)=N/N=C(N)N)cc2)cc1
inactive: dose: 2.5 mg/kg/injection, schedule: Q01DX009 (ip), vehicle: saline 103 % of control | dose: 5.0 mg/kg/injection, schedule: Q01DX009 (ip), vehicle: saline 121 % of control | dose: 10.0 mg/kg/injection, schedule: Q01DX009 (ip), vehicle: saline 107 % of control

COC(=O)C(Cc1c[nH]c2ccccc12)N(C)C (stereo unspecified)
inactive: [12] 101 % of control | dose: 200.0 mg/kg/injection, schedule: Q01DX001 (ip), vehicle: other 103 % of control | [13] 98 % of control

[Cl][Hg][CH2]C1COC([CH2][Hg][Cl])CO1 (stereo unspecified)
inactive: dose: 25.0 mg/kg/injection, schedule: Q01DX001 (ip), vehicle: carboxymethylcellulose (CMC) 90 % of control | [4] 92 % of control | [5] 95 % of control

O=[N+]([O-])c1ccc(/C=N/c2nccs2)o1
inactive: dose: 1.56 mg/kg/injection, schedule: Q01DX009 (ip), vehicle: saline 88 % of control | dose: 3.12 mg/kg/injection, schedule: Q01DX009 (ip), vehicle: saline 90 % of control | dose: 6.25 mg/kg/injection, schedule: Q01DX009 (ip), vehicle: saline 93 % of control | dose: 12.5 mg/kg/injection, schedule: Q01DX009 (ip), vehicle: saline 103 % of control | dose: 25.0 mg/kg/injection, schedule: Q01DX009 (ip), vehicle: saline 93 % of control | dose: 25.0 mg/kg/injection, schedule: Q04DX003 (ip), vehicle: saline 97 % of control | dose: 50.0 mg/kg/injection, schedule: Q04DX003 (ip), vehicle: saline 116 % of control | dose: 100.0 mg/kg/injection, schedule: Q04DX003 (ip), vehicle: saline 88 % of control and 91 % of control

Cc1ccc(NC(=O)C(Cl)(Cl)Cl)cc1[N+](=O)[O-]
inactive: dose: 100.0 mg/kg/injection, schedule: Q01DX009 (ip), vehicle: saline with Tween-80 94 % of control | dose: 200.0 mg/kg/injection, schedule: Q01DX009 (ip), vehicle: saline with Tween-80 100 % of control | dose: 400.0 mg/kg/injection, schedule: Q01DX009 (ip), vehicle: saline with Tween-80 104 % of control

C1N2CN3CN1CN(C2)C3
inactive: [4] 104 % of control | [5] 104 % of control | dose: 100.0 mg/kg/injection, schedule: Q04DX002 (ip), vehicle: saline 100 % of control | [6] 112 % of control | dose: 200.0 mg/kg/injection, schedule: Q04DX002 (ip), vehicle: saline 100 % of control | [7] 101 % of control | dose: 400.0 mg/kg/injection, schedule: Q04DX002 (ip), vehicle: saline 114 % of control

c1ccc(C2O[O][Sn]([c]3ccccc3)([c]3ccccc3)[O]2)cc1 (stereo unspecified)
inactive: dose: 25.0 mg/kg/injection, schedule: Q04DX002 (ip), vehicle: gum acacia 97 % of control | dose: 50.0 mg/kg/injection, schedule: Q04DX002 (ip), vehicle: gum acacia 111 % of control | dose: 100.0 mg/kg/injection, schedule: Q04DX002 (ip), vehicle: gum acacia 105 % of control and 86 % of control

COc1ccc(C2NC(=O)CCC2N)cc1OC (stereo unspecified)
inactive: dose: 100.0 mg/kg/injection, schedule: Q01DX001 (ip), vehicle: saline with Tween-80 99 % of control | dose: 200.0 mg/kg/injection, schedule: Q01DX001 (ip), vehicle: saline with Tween-80 101 % of control | dose: 400.0 mg/kg/injection, schedule: Q01DX001 (ip), vehicle: saline with Tween-80 95 % of control

Cc1ccnc2c(N)cccc12
inactive: dose: 75.0 mg/kg/injection, schedule: Q01DX001 (ip), vehicle: saline 98 % of control

O=C(OCC(OC(=O)c1ccccc1)C(OC(=O)c1ccccc1)C(COC(=O)c1ccccc1)OC(=O)c1ccccc1)c1ccccc1 (stereo unspecified)
inactive: [11] 93 % of control | [1] 105 % of control | [2] 93 % of control

Source: PubChem BioAssay AID248 (DTP/NCI, 2004)
